# Results from article PMC13342036, “Genomic and Proteolytic Profiling of Lacticaseibacillus sp. PRA205: Insights into PepX-Mediated Bioactive Peptide Metabolism” (Probiotics and Antimicrobial Proteins, 2025).
# Read-outs that look alike come from different tables or passages of the source.
# What was measured:
# [1] = system: di-peptidyl-peptidase-IV (DPP-IV); settings: cited from earlier work
# Experimental: (§1) Considering the cleavage specificity of PepX and the presence of proline residues in many dairy-derived BPs, the ability of PepX to hydrolyse selected BPs was evaluated. Selected BPs were well-known effective inhibitors of the enzymes ACE and di-peptidyl-peptidase-IV (DPP-IV). […] These two peptides have been identified in several fermented dairy products such as yoghurt and cheeses. The other peptides, ...
# [2] = system: ACE; settings: cited from earlier work
# Experimental: as §1
# [3] = system: blood pressure; settings: humans; cited from earlier work
# [4] = system: blood pressure; settings: rats; cited from earlier work
# [5] = system: PepX; experiment: Effect of protease inhibitors (PMSF, EDTA) on partially purified PepX activity, Gly-Pro-pNA substrate; assay type: biochemical, Lacticaseibacillus sp. PRA205; settings: pH 7.0, 37 °C; for effect on PepX enzymatic activity (decrease): inhibitor 1 mmol/L
# Experimental: PepX activity in the Lcb. casei PRA205 cytoplasmic extract was assessed in a 96-well plate using glycyl-prolyl-p-nitroanilide (Gly-Pro-pNA) as a specific substrate in the absence and presence of inhibitors. The reaction mixture containing 235 µL of 50 mmol/L Tris-Cl buffer (pH 7) and 5 µL of Gly-Pro-pNA substrate (previously dissolved in the same buffer in a concentration of 6.4 mmol/L) was pre-incubated at 37 °C for 5 min, before the addition of 10 µL of cytoplasmic extract. The same reactions were also carried out in the presence of EDTA and PMSF at increasing concentrations of 0.1, 0.5, 1, 5 and 10 mmol/L. Controls contained a buffer instead of an extract. After incubation for 2 h at 37 °C, reactions were stopped with 50 µL of acetic acid (30%) and the release of pNA was measured spectrophotometrically at 405 nm.
# The effect of temperature on the PepX activity was determined as described above, modifying the incubation temperature while maintaining a constant pH of 7. The assay was carried out at four temperatures: 5 °C, 35 °C, 40 °C, and 45 °C. The effect of pH on enzyme activity was evaluated at a constant temperature of 37 °C by modifying the pH of the reaction buffer. Tris-HCL buffer (50 mmol/L) was utilized for reactions at pH 4–9, whereas sodium Tris-HCL buffer (50 mmol/L) was used for the assay at pH 7.0. The effect of protease inhibitors was tested by supplementing the reaction mix with EDTA or PMSF at final concentrations of 0, 1, 2, 5, or 10 mmol/L under standard conditions (pH 7.0, 37 °C).
compound,measurement,setting,value
IPPL,DPP-IV inhibition,[1],potent DPP-IV inhibitors
LPPT,DPP-IV inhibition,[1],potent DPP-IV inhibitors
"Ile-Pro-Pro [IPP, anti-hypertensive lactotripeptide derived from β-casein]",ACE inhibition,[2],potent ACE inhibitors
same,reduction of blood pressure in vivo,[3],effective in vivo in reducing blood pressure
same,reduction of blood pressure in vivo,[4],effective in vivo in reducing blood pressure
O=S(=O)(F)Cc1ccccc1 [PMSF],effect on PepX enzymatic activity (decrease),[5]; vs control without inhibitor,more than 40%
same,effect on PepX enzymatic activity,[5]; inhibitor 5 mmol/L,completely abolished
same,effect on PepX enzymatic activity,[5]; inhibitor 10 mmol/L,completely abolished
APFPE,DPP-IV inhibition,[1],potent DPP-IV inhibitors
O=C(O)CN(CCN(CC(=O)O)CC(=O)O)CC(=O)O [EDTA],effect on PepX enzymatic activity (decrease),[5]; vs control without inhibitor,no effect
same,residual PepX activity,"[5]; inhibitor 10 mmol/L, vs control without inhibitor",40%
"Val-Pro-Pro [VPP, anti-hypertensive lactotripeptide derived from β-casein]",ACE inhibition,[2],potent ACE inhibitors
same,reduction of blood pressure in vivo,[3],effective in vivo in reducing blood pressure
same,reduction of blood pressure in vivo,[4],effective in vivo in reducing blood pressure
